Source: patent US12692235B2, “Fused ring compound and application thereof” (WUHAN LL SCIENCE AND TECHNOLOGY DEVELOPMENT CO., LTD., priority 2019, dated 2026)

Assays:
[1] = tested on: Male Dunkin Hartley guinea pigs; experiment: Simple citric acid cough model; assay type: in vivo; conditions: guinea pig; for Average cough times: 17.5% citric acid
Experimental: Male Dunkin Hartley guinea pigs (300-350 g) were placed in an animal atomization box, and then the door of the atomization box was closed while the ultrasonic atomizer (Guangdong Yuehua) was turned on. 17.5% citric acid gas was introduced into the atomization box at a maximum atomization rate (about 2 mL/min) for 20 s, and coughs of the animals within 10 min were continuously observed from the time of the start of atomization. During the 10-min observation, coughs of the animals needed to be counted manually, and the number of coughs were judged according to cough postures of the guinea pigs, such as abdominal twitching, mouth opening, and head inclining downward abruptly. The number of coughs during the first 5 min and that during 10 min were recorded, and the cough latency of the guinea pigs, namely the time from the initiation of citric acid induction to the appearance of the 1st cough, was also recorded.

[2] = target: T1, hP2X4 (human purinergic P2X receptor subtype 4) (Homo sapiens, UniProt Q99571); conditions: P2X4 IC50 (nM), HEK293 cells stably expressing hP2X4; agonist BZ-ATP 2.5 μM; FLIPR calcium
T1 sequence (Q99571 1-404 isoform Q99571-2): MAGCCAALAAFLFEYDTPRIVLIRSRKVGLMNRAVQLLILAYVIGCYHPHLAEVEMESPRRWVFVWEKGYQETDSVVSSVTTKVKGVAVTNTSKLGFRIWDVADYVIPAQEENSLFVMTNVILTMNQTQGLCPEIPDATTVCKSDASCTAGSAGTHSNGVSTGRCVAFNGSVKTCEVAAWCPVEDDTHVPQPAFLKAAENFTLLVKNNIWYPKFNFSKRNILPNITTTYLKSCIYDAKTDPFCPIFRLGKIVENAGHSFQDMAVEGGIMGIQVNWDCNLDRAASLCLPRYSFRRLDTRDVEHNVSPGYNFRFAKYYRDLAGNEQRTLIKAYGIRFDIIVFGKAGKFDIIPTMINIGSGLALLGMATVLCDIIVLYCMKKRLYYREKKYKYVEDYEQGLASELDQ
Experimental: Cells at 400,000 cells/mL were seeded into a 384-well plate (10,000 cells/well) 18-24 h prior to the FLIPR experiment and then incubated overnight in a cell incubator. […] Each well was added with 20 μL of 0.5×Calcium 6 fluorescent dye (Molecular Devices, R8190) and then the cells were subjected to dye-loading incubation at 37° C. for 1.5 h. Each well was added with 10 μL of respective test compound (dissolved in DMSO at a concentration of 10 mM and serially diluted with buffer) or vehicle and the mixture was equilibrated for 30 min at room temperature.

[3] = 60 mg/kg group, before administration
[4] = citric acid, 20 mg/kg and 60 mg/kg, dose-dependent, vs vehicle group or before administration

For COc1nccc2c(S(N)(=O)=O)cc(NC(=O)Cc3ccccc3Cl)cc12 [Compound 1, 2-(2-chlorophenyl)-N-(1-methoxy-5-sulfamoylisoquinolin-7-yl)acetamide], the Average cough times ([1]; 20 mg/kg group, before administration) was 19.00, the Average cough times ([1]; 20 mg/kg, after administration) was 11.22 and the Average cough times [1, 3] was 19.40. The Average cough times ([1]; 60 mg/kg, after administration) was 10.50, the Average cough times ([1]; 100 mg/kg group, before administration) was 19.90 and the Average cough times ([1]; 100 mg/kg, after administration) was 8.60. The “Cough inhibition rate Vs basic value (%)” value ([1]; citric acid, 20 mg/kg) was 40.94%, the “Cough inhibition rate Vs vehicle (%)” value ([1]; citric acid, 20 mg/kg) was 38.41% and the cough latency [1, 4] was “prolong the cough latency”. For the same compound, the number of coughs [1, 4] was “reduce the number of coughs”, the “Cough inhibition rate Vs basic value (%)” value ([1]; citric acid, 60 mg/kg) was 45.88% and the “Cough inhibition rate Vs vehicle (%)” value ([1]; citric acid, 60 mg/kg) was 42.38%. For the same compound, the “drug effect compared with dextromethorphan at the same dosage” value ([1]; citric acid, 60 mg/kg) was “no significant difference in the drug effect compared with the positive compound dextromethorphan”, the “Cough inhibition rate Vs basic value (%)” value ([1]; citric acid, 100 mg/kg) was 56.78% and the “Cough inhibition rate Vs vehicle (%)” value ([1]; citric acid, 100 mg/kg) was 52.80%. It also gave an IC50 [2] of less than 10 nM.

NS(=O)(=O)c1cc(NC(=O)Cc2ccccc2Cl)cc2c1CCN(c1cc(Cl)c(F)cn1)C2 [Compound 118, N-(2-(4-chloro-5-fluoropyridin-2-yl)-5-sulfamoyl-1,2,3,4-tetrahydroisoquinolin-7-yl)-2-(2-chlorophenyl)acetamide] was tested, and the IC50 [2] was 50 to 200 nM.

C=CC(F)(F)N1CCc2c(cc(NC(=O)Cc3ccccc3Cl)cc2S(N)(=O)=O)C1 [Compound 119, 2-(2-chlorophenyl)-N-(2-(1,1-difluoroallyl)-5-sulfamoyl-1,2,3,4-tetrahydroisoquinolin-7-yl)acetamide] gave an IC50 [2] of 200 to 5000 nM.

NS(=O)(=O)c1cc(NC(=O)Cc2ccccc2Cl)cc2c1CCN(c1ccc(F)cc1)C2 [Compound 120, 2-(2-chlorophenyl)-N-(2-(4-fluorophenyl)-5-sulfamoyl-1,2,3,4-tetrahydroisoquinolin-7-yl)acetamide] gave an IC50 [2] of 50 to 200 nM.

Cc1ccc(N2CCc3c(cc(NC(=O)Cc4ccccc4Cl)cc3S(N)(=O)=O)C2)nc1 [Compound 121, 2-(2-chlorophenyl)-N-(2-(5-methylpyridin-2-yl)-5-sulfamoyl-1,2,3,4-tetrahydroisoquinoline-7-yl)acetamide] showed an IC50 [2] of 50 to 200 nM.

For NS(=O)(=O)c1cc(NC(=O)Cc2ccc(F)cc2Cl)cc2c1CCN(c1ccc(F)cn1)C2 [Compound 122], the IC50 [2] was 200 to 5000 nM.

Work on NS(=O)(=O)c1cc(NC(=O)Cc2ccccc2Cl)cc2c1CCN(C1COC1)C2 [Compound 123, 2-(2-chlorophenyl)-N-(2-(oxetan-3-yl)-5-sulfamoyl-1,2,3,4-tetrahydroisoquinolin-7-yl)acetamide] yielded an IC50 [2] of 200 to 5000 nM.

For COc1ccc2c(c1)[C@]13CCCC[C@@H]1[C@H](C2)N(C)CC3 [Dextromethorphan, dextromethorphan, reference compound], the Average cough times [1, 3] was 19.70, the Average cough times ([1]; 60 mg/kg, after administration) was 11.20 and the “Cough inhibition rate Vs basic value (%)” value ([1]; citric acid, 60 mg/kg) was 43.15%. For the same compound, the “Cough inhibition rate Vs vehicle (%)” value ([1]; citric acid, 60 mg/kg) was 38.54%.

With COc1ccc(Nc2ccc3c(S(N)(=O)=O)cc(NC(=O)Cc4ccccc4Cl)cc3n2)cc1 [Trifluoroacetate of compound 71, 2-(2-chlorophenyl)-N-(2-((4-methoxyphenyl)amino)-5-sulfamoylquinolin-7-yl)acetamide] the IC50 [2] was 200 to 5000 nM.
